Patent US12122761B2, “2-azaspiro[3.4]octane derivatives as M4 agonists” (NOVARTIS AG, priority 2019, dated 2024)

Key:
Assay type in all cases: cell-based
[1] = molecular target: T1, human cloned CHRM5 receptor (M5_CHO) (Homo sapiens, UniProt P08912); experiment: CHRM5 Ca++ Flux Assay (agonist mode, FDSS 7000EX); conditions: for M5 FDSS PA: Percent Activity measured to EC100 of Carbachol; for EC50: agonist mode, geometric mean if tested more than once, read-out: M5 FDSS EC50
T1 construct: expressed in transfected cells; host or cells: CHO (M5_CHO)
T1 sequence (P08912 1-532): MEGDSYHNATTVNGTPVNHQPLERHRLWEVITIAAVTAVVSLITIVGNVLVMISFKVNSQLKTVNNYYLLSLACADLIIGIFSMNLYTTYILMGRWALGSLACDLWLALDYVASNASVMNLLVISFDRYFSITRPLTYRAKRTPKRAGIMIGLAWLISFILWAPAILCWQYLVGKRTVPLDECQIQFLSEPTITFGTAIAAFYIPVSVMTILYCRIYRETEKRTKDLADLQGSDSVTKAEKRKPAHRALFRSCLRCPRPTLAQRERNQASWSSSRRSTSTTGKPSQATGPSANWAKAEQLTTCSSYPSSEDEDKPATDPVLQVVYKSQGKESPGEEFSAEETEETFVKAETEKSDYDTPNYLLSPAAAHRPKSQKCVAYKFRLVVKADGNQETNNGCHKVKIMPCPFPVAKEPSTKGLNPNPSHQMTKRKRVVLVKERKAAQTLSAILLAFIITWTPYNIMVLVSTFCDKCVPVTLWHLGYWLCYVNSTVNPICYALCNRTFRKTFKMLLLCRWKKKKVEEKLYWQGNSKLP
Method: (§1) The above examples were characterized by measuring the intracellular mobilization of Ca++ ions caused by signaling events mediated by the receptor. The Intra-cellular Calcium flux levels were captured by the highly sensitive Ca++ indicator, Calcium Assay Kit (BD Biosciences, Catalog Number 640178). The fluorescent activity from all receptors were monitored by the fluorescent imager, FDSS 7000EX (Hamamatsu) over a span of 3 minutes.
(§2) CHO-K1 cells stably expressing the human cloned CHRM3 receptor (M3_CHO cells) were grown and maintained in a monolayer culture with F12/HAM (Life Technologies) supplemented with 10% Fetal Bovine Serum, 1× Pen-Strep, and 0.4 mg/mL Geneticin in a humidified atmosphere (5% CO2) at 37° C. The cultures were grown to 80-9 0% confluency in T150 flasks (Corning) and washed with 1×DPBS and lifted with 0.05% Trypsin (Life Technologies). The cells were then spun (1K rpm, 3 minutes) and frozen using Recovery Cell Culture Freezing Media (Gibco Technologies). Cells were stored in liquid nitrogen and thawed a day before the assay. A similar procedure was used for cells stably expressing the human cloned CHRM5 receptor (M5_CHO).
(§3) Prior to the day of the assay, stable M3_CHO or M5_CHO cells were thawed and plated on Greiner 384 well black TC treated plates at 12K cells/well in F12/DMEM supplemented with 10% FBS (Hyclone) and kept overnight in a humidified atmosphere (5% CO2) at 37° C. The next day, cells were loaded with Ca^++ dye (BD Biosciences) using Loading Buffer (HBSS +Ca/+Mg, 20 mM HEPES, 2.5 mM Probenecid) and placed back in cell incubator for a minimum of 1 hour. After incubation, the dye was replaced with Assay Buffer (HBSS −Ca/−Mg, 20 mM HEPES, 2.5 mM Probenecid) and kept at room temperature in the dark before running on cell imager. The FDSS 7000EX (Hamamatsu) was used to acquire Ca^++ traces from cells treated with 11 point dose response of compounds in triplicate in order to generate dose response curves in agonist mode. All compounds were serially diluted in DMSO then prepared in Assay Buffer for Ca^++ flux studies. The dose response curves were generated from the average of triplicate wells obtained from each data point and used a non-linear regression of four parameter dose response algorithm. The Percent Activity (PA) was measured to EC100 of Carbachol.

[2] = molecular target: T2, human cloned CHRM3 receptor (M3_CHO cells) (Homo sapiens, UniProt P20309); experiment: CHRM3 Ca++ Flux Assay (agonist mode, FDSS 7000EX); conditions: for M3 FDSS PA: Percent Activity measured to EC100 of Carbachol; for EC50: agonist mode, geometric mean if tested more than once, read-out: M3 FDSS EC50
T2 construct: expressed in transfected cells; host or cells: CHO-K1
Method: as §1, §2, §3

[3] = molecular target: T3, human cloned CHRM4 receptor (M4_CHO cells) (Homo sapiens, UniProt P08173); experiment: CHRM4 Ca++ Flux Assay (agonist mode, FDSS 7000EX); conditions: for M4 FDSS PA: Percent Activity; for EC50: geometric mean if tested more than once, read-out: M4 FDSS EC50
T3 construct: expressed in transfected cells; host or cells: CHO-K1
T3 sequence (P08173 1-479): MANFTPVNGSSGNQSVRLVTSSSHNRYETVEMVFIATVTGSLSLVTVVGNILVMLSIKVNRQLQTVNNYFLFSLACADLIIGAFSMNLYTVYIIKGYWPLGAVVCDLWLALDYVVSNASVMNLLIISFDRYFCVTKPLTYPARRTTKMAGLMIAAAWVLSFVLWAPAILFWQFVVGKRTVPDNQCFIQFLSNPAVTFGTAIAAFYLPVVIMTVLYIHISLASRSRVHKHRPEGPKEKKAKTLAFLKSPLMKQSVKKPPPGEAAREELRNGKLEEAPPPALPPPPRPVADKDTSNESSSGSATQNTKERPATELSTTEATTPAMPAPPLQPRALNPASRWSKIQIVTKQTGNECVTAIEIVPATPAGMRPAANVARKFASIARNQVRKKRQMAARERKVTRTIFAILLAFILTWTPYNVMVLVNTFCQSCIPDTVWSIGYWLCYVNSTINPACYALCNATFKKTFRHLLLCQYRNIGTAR
Method: as §1
CHO-K1 cells stably expressing the human cloned CHRM4 receptor (M4_CHO cells) were grown and maintained in a monolayer culture with F12/HAM (Life Technologies) supplemented with 10% Fetal Bovine Serum, 1× Pen-Strep, and 0.4 mg/mL Geneticin in a humidified atmosphere (5% CO2) at 37° C. The cultures were grown to 80-90% confluency in T150 flasks (Corning) and washed with 1×DPBS then lifted with 0.05% Trypsin (Life Technologies). The cells were harvested in growth media then spun (1K rpm, 3 minutes) and cryopreserved using Recovery Cell Culture Freezing Media (Gibco Technologies). Cells were stored in liquid nitrogen and thawed a day before the assay.
Prior to the day of the assay, stable M4_CHO cells were thawed and plated on 384 well black walled clear bottom TC treated plates (Greiner Cat #781091) at 12K cells/well using F12/HAM Media supplemented with 10% FBS (Life Technologies) and kept overnight in a humidified atmosphere (5% CO2) at 37° C. The next day, cells were loaded with […] Ca^++ dye (BD Biosciences) using Loading Buffer (HBSS +Ca/+Mg, 20 mM HEPES, 2.5 mM Probenecid) and placed back in cell incubator for a minimum of 1 hour. After incubation, the dye was replaced with 45 μL Assay Buffer (HBSS −Ca/−Mg, 20 mM HEPES, 2.5 mM Probenecid) supplemented with 20 μM ATP (Sigma Aldrich) and kept at room temperature in the dark for 60 minutes before running on a cell imager. The FDSS 7000EX (Hamamatsu) was used to capture Ca^++ traces for a span of 3 minutes from cells treated with 11 point dose of compound in triplicate in order to generate dose response curves in agonist mode. All compounds were serially diluted in DMSO then prepared in Assay Buffer for Ca^++ flux studies. The dose response curves were generated from the average of triplicate wells obtained from each data point and used a non-linear regression of four parameter dose response algorithm. The Percent Activity (PA) was measured to EC100 of Carbachol.

T2 sequence (P20309 whole entry): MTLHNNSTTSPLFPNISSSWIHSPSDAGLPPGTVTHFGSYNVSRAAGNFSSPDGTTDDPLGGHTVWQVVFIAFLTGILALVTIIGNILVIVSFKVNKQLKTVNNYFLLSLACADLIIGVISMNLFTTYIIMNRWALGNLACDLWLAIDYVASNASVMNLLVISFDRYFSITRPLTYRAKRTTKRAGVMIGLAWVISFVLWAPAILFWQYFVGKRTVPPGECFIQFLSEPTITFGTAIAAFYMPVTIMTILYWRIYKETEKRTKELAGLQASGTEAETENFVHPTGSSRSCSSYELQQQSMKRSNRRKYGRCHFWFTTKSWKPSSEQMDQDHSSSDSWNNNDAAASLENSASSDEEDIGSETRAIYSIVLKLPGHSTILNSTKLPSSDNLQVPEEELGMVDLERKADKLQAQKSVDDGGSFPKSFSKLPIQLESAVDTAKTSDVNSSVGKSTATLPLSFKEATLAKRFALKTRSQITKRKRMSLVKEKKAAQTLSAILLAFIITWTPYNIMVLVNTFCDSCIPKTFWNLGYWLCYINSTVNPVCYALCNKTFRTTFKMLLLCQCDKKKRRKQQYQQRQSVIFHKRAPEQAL

Compound	M5 FDSS PA [1] [%]	EC50 [1] [µM]	M3 FDSS PA [2] [%]	EC50 [2] [µM]	M4 FDSS PA [3] [%]	EC50 [3] [µM]
O=C(N1CC2(CC[C@@H](N3CCC(c4ccccc4OCc4ncccn4)CC3)C2)C1)C1(F)CC1 (single isomer, unassigned) [Example 7M, (R)-(1-fluorocyclopropyl)(6-(4-(2-(pyrimidin-2-ylmethoxy)phenyl)piperidin-1-yl)-2-azaspiro[3.4]octan-2-yl)methanone or (S)-(1-fluorocyclopropyl)(6-(4-(2-(pyrimidin-2-ylmethoxy)phenyl)piperidin-1-yl)-2-azaspiro[3.4]octan-2-yl)methanone]	0	> 25	0	> 25	50	0.001
O=C(N1CC2(CC[C@@H](N3CCC(c4ccccc4OCCO)CC3)C2)C1)C1(F)CC1 (single isomer, unassigned) [Example 7N, (R)-(1-fluorocyclopropyl)(6-(4-(2-(2-hydroxyethoxy)phenyl)piperidin-1-yl)-2-azaspiro[3.4]octan-2-yl)methanone or (S)-(1-fluorocyclopropyl)(6-(4-(2-(2-hydroxyethoxy)phenyl)piperidin-1-yl)-2-azaspiro[3.4]octan-2-yl)methanone]	0	> 25	0	> 25	68	0.001
O=C(N1CC2(CC[C@@H](N3CCC(c4ccccc4OCC4CC4)CC3)C2)C1)C1(F)CC1 (single isomer, unassigned) [Example 7O, (R)-(6-(4-(2-(cyclopropylmethoxy)phenyl)piperidin-1-yl)-2-azaspiro[3.4]octan-2-yl)(1-fluorocyclopropyl)methanone or (R)-(6-(4-(2-(cyclopropylmethoxy)phenyl)piperidin-1-yl)-2-azaspiro[3.4]octan-2-yl)(1-fluorocyclopropyl)methanone]	0	> 25	0	> 25	42	0.009
O=C1CCCN1CCOc1ccccc1C1CCN([C@@H]2CCC3(C2)CN(C(=O)C2(F)CC2)C3)CC1.O=CO (single isomer, unassigned) [Example 7P, (R)-1-(2-(2-(1-(2-(1-fluorocyclopropane-1-carbonyl)-2-azaspiro[3.4]octan-6-yl)piperidin-4-yl)phenoxy)ethyl)pyrrolidin-2-one formate salt or (S)-1-(2-(2-(1-(2-(1-fluorocyclopropane-1-carbonyl)-2-azaspiro[3.4]octan-6-yl)piperidin-4-yl)phenoxy)ethyl)pyrrolidin-2-one formate salt]	0	> 25	0	> 25	49	0.001

Next, values leading:

M5 FDSS PA [1] [%]	EC50 [1] [µM]	M3 FDSS PA [2] [%]	EC50 [2] [µM]	M4 FDSS PA [3] [%]	EC50 [3] [µM]	Compound
0	> 25	0	> 25	48	0.003	O=C(N1CC2(CC[C@@H](N3CCC(c4ccccc4OCC4CCOCC4)CC3)C2)C1)C1(F)CC1 (single isomer, unassigned) [Example 7Q, (R)-(1-fluorocyclopropyl)(6-(4-(2-((tetrahydro-2H-pyran-4-yl)methoxy)phenyl)piperidin-1-yl)-2-azaspiro[3.4]octan-2-yl)methanone or (S)-(1-fluorocyclopropyl)(6-(4-(2-((tetrahydro-2H-pyran-4-yl)methoxy)phenyl)piperidin-1-yl)-2-azaspiro[3.4]octan-2-yl)methanone]
0	> 25	0	> 25	36	0.062	Cc1nnc(COc2ccccc2C2CCN([C@@H]3CCC4(C3)CN(C(=O)C3(F)CC3)C4)CC2)s1 (single isomer, unassigned) [Example 7R, (R)-(1-fluorocyclopropyl)(6-(4-(2-((5-methyl-1,3,4-thiadiazol-2-yl)methoxy)phenyl)piperidin-1-yl)-2-azaspiro[3.4]octan-2-yl)methanone or (S)-(1-fluorocyclopropyl)(6-(4-(2-((5-methyl-1,3,4-thiadiazol-2-yl)methoxy)phenyl)piperidin-1-yl)-2-azaspiro[3.4]octan-2-yl)methanone]
0	> 25	0	> 25	26	2.65	CCOc1ccccc1C1CCN([C@@H]2CCC3(C2)CN(C(=O)C2(F)CC2)C3)CC1 (single isomer, unassigned) [Example 7S, (R)-(6-(4-(2-ethoxyphenyl)piperidin-1-yl)-2-azaspiro[3.4]octan-2-yl)(1-fluorocyclopropyl)methanone or (S)-(6-(4-(2-ethoxyphenyl)piperidin-1-yl)-2-azaspiro[3.4]octan-2-yl)(1-fluorocyclopropyl)methanone]
